Calls of active or inactive are those of the source. No rule for the calls is given here. Some results are limits rather than exact numbers.

The assay has as its system Saccharomyces cerevisiae lifespan shortening, growth inhibition. The experiment in a line: Saccharomyces cerevisiae growth inhibition potency – dose response (AID 849).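 Also: yeast growth read as optical density after two days at 30 degrees C.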
As to `c1ccc2nc3ccccc3nc2c1`, the IC50 is 16.8 µM.
As for `S=C(NCC1CCCCC1)Nc1ccc(Oc2ccccc2)cc1`, the figure is > 100 µM (inactive); as for `O=C1c2ccccc2C(=O)c2c1cccc2N1CCOCC1`, 46.6 µM; as for `CCSc1nc2ccccc2n1S(=O)(=O)c1ccccc1`, > 100 µM (inactive).
As for `CC1(CCc2ccccc2)NC(=S)N(c2ccccc2)N1` (stereo unspecified), the IC50 was 14.1 µM.
Then `C=CCN1C(C(=O)c2ccccc2)=C(OC(=O)COc2ccccc2)c2ccccc2S1(=O)=O`, with 26.9 µM; and `CCOC(=O)/C(=N\Nc1ccccc1Cl)N1CCN(Cc2ccccc2)CC1`, with 17.9 µM; and `CCc1nc2ccccc2c(=O)n1NC(=O)c1c(O)c2cccc3c2n(c1=O)CCC3`, with > 100 µM (inactive).
As for `O=Cc1c(Sc2ccccc2)nc2ccccn2c1=O`, the figure is 29 µM; as for `CN1CCN(C2=Cc3ccc(Cl)cc3Sc3ccc(F)cc32)CC1`, 30 µM; as for `Cc1c2cc(O)c(=O)cc-2oc2cc(O)c(O)cc12`, 28.1 µM.
Turning to `Nc1ccc(SC(F)(F)F)cc1C(=O)c1ccccc1`, the IC50 was > 100 µM (inactive).
As for `Cc1cc(-c2n[nH]c(=S)n2/N=C/c2cc([N+](=O)[O-])ccc2Cl)n[nH]1`, the figure is > 100 µM (inactive); as for `N#C/C(=N/O)c1nc(-c2ccc(F)cc2)cs1`, 24.9 µM.
Consider `O=[N+]([O-])c1cc(Cc2ccccc2)cc(C=Nc2ccc(N3CCOCC3)cc2)c1O`, for which the IC50 was > 100 µM (inactive).
Then `C/C(O)=c1/ccc2cccc3nc(C)nc1c23`, with 17.6 µM; and `N=c1n(CCN2CCOCC2)c2ccccc2n1CC(=O)c1ccc(Cl)c(Cl)c1`, with > 100 µM (inactive); and `O=C(O)CCSc1nnc(-c2ccccc2)n1-c1ccccc1`, with > 100 µM (inactive).
Then `O=c1c2cccc3c2c(nn1CN1CCOCC1)-c1ccccc1-3`, with 23.5 µM; and `CCCCOC(=O)n1c(=S)oc2cc(Cl)ccc21`, with 16.5 µM.
On to `Nc1c(C(=O)NCCc2ccccc2)c2nc3ccccc3nc2n1CCN1CCOCC1`, for which the IC50 was 22.3 µM.
Then `CNC(=O)Oc1cccc(-c2cn3cc(OC(=O)NC)ccc3n2)c1`, with 10.3 µM; and `CC(C)(C)N/N=C/c1cc(Cl)cc([N+](=O)[O-])c1O`, with 12.9 µM.
As for `CN1CCN(C2=Cc3cc(Cl)ccc3Sc3cc(F)ccc32)CC1`, the figure is 15.2 µM; as for `CCC1C(=O)N=C(SCC(=O)Nc2ccccc2)NC1=O` (stereo unspecified), > 100 µM (inactive).
As for `CCCCCCCCCCCCCCCC[n+]1cccc2ccccc21`, the figure is 0.783 µM; as for `O=C(c1ccccc1)c1ccc2nc(N3CCCCC3)c3nncn3c2c1`, > 100 µM (inactive).
For the compound `Cc1c(Cl)cccc1N=Cc1ccc([N+](=O)[O-])s1`, the IC50 is > 100 µM (inactive).
Then `CCOC(=O)c1c(-c2ccc(-c3ccccc3)cc2)csc1NC(=O)CCN1CCOCC1`, with 19.1 µM.
For `Cc1cccc(/C(N)=N/OC(=O)c2ccc(F)cc2)c1`, the half-maximal inhibitory concentration (IC50) is 23.8 µM.
Then `Cc1nn2c3ccccc3nc2c2ccccc12`, with 41.6 µM; and `c1ccc(-c2nnc(-c3ccccn3)nc2NC2CCCCC2)cc1`, with 12.5 µM; and `N/C(Cc1ccc(Cl)cc1)=N\OC(=O)C1CCCCC1`, with 11.5 µM.
In the case of `N/C(Cc1ccccc1)=N\OC(=O)c1cccc2ccccc12`, the IC50 was 10.8 µM.
Consider `O=C(O)c1ccccc1Nc1ccc([N+](=O)[O-])cc1`, for which the IC50 was 10.8 µM.
Then `O=C(Nc1nc(-c2ccccn2)cs1)C1COc2ccccc2O1` (stereo unspecified), with 12.7 µM; and `Cc1ccc(NN2C(=O)C=C(c3ccc(Cl)cc3)C2=O)cc1`, with 18.4 µM.
Then `CC(C)N=c1scc(-c2ccco2)n1/N=C/c1ccc(O)c(O)c1`, with 49.1 µM; and `Cc1nnc(NC(=O)CSc2nnc(Cc3cccn3C)n2-c2ccccc2)s1`, with > 100 µM (inactive).
As for `COc1ccc(-c2nncnn2)cc1`, the figure is 10 µM; as for `O=C(Nc1nc(-c2ccccn2)cs1)c1ccc(Br)s1`, 9.04 µM; as for `Cc1cccnc1Nc1nc(-c2ccccn2)cs1`, 45.7 µM.
For `CCCc1ccc(Oc2c(-c3ccc(O)c(C)c3O)n[nH]c2C)cc1`, the IC50 is 7.01 µM.
Then `CN1C(=O)c2cccc3c(Cl)ccc(c23)C1=O`, with > 100 µM (inactive); and `Cc1cc2nc(C)n3c4ccccc4nc3n2n1`, with 15.4 µM.
Then `CC(C)(C)C(=O)O/N=C1/C(=O)N(c2ccccc2)c2ccccc21`, with 30.6 µM; and `Cc1cc(=O)[nH]c(-n2nc(C)cc2C)n1`, with 14.3 µM.
As for `Cn1c(SCC(=O)N/N=C/c2ccc([N+](=O)[O-])s2)nnc1-c1ccc(Cl)cc1`, the figure is 25.3 µM.
Turning to `CCC(C)NC(=O)C1CCN(S(=O)(=O)c2cccc3cccnc23)CC1` (stereo unspecified), the IC50 is > 100 µM (inactive).
As for `O=[N+]([O-])c1ccc(O)c2ncccc12`, the figure is 0.575 µM.
As for `CSC1=NSC2=NC(=O)/C(=C\c3coc4ccccc4c3=O)C(=N)N12`, the figure is > 100 µM (inactive); as for `NC(=O)c1ccc(N=Cc2ccc([N+](=O)[O-])s2)cc1`, 7.91 µM; as for `CN(C)CCNC=C(C(=O)Nc1ccc(Cl)cc1Cl)C(=O)Nc1ccc(Cl)cc1Cl`, 23.9 µM.
Then `CCOC(=O)c1c(/N=C/c2cc([N+](=O)[O-])ccc2O)sc(C)c1C`, with 47.1 µM.
Regarding `Cc1cc(C)c2c(N=NN(C)C)[nH]nc2n1`, the half-maximal inhibitory concentration (IC50) is 12.2 µM.
Then `O=c1c(-c2ccc(Cl)cc2)[n+]([O-])c2ccccc2n1O`, with 7.87 µM.
Then `COc1ccc(C(=O)N/N=C/c2sc3ccccc3c2O)cc1`, with > 100 µM (inactive); and `O=[N+]([O-])c1cccc(/C=N/n2cnnc2)c1O`, with 19.7 µM.
As for `Cc1cc(N/N=C/c2ccc(Cl)cc2Cl)nc(NCc2ccccc2)n1`, the figure is 28.9 µM; as for `CC1CCCCN1S(=O)(=O)c1coc(C(N)=O)c1` (stereo unspecified), > 100 µM (inactive).
`Cc1ccc(O)c(-c2cc(-c3cccc(F)c3)n[nH]2)c1`: the IC50 is 19.3 µM.
As for `CC1CCC2(CC1)NC(=S)N(c1ccccc1)N2` (stereo unspecified), the figure is 23.6 µM.
As for `CCCOC(=O)c1ccc(Oc2cn[nH]c2-c2ccc(OCC)cc2O)cc1`, the figure is > 100 µM (inactive); as for `CCOCCCNC(=O)c1ccc(Br)cc1`, > 100 µM (inactive).
Then `Cc1cc(C)cc(NS(=O)(=O)c2cnc(Cl)c(Cl)c2)c1`, with 47.5 µM; and `CC(C)c1ccc2c(c1)C1(NN=C(c3ccccc3)S1)C(=O)N2` (stereo unspecified), with 26.3 µM.
With `CC(C)(C)c1cc(C(c2cccnc2)N2CCN(CCO)CC2)cc(C(C)(C)C)c1O` (stereo unspecified), the IC50 is 17.3 µM.
For the compound `CCCCc1ccc(NS(=O)(=O)c2cccs2)cc1`, the half-maximal inhibitory concentration (IC50) is 35.3 µM.
Then `CCCCNC(=S)NCc1ccc2c(c1)cc(C)n2C`, with > 100 µM (inactive); and `O=C(O)c1cc2c(ccc3ccccc32)oc1=O`, with 11.9 µM.
Take `CC1=CC(=O)c2ccccc2C1=O`: the IC50 was 18.5 µM.
Then `CC(=O)O/N=C/c1c(N2CCOCC2)n(C)c2ccccc12`, with 12.4 µM.
`COc1ccc2c(c1)[nH]c1c(Cl)ncnc12`: the IC50 is 29.9 µM.
On to `O=C(c1c[nH]c(C(=O)C(Cl)(Cl)Cl)c1)c1ccccc1Cl`, for which the IC50 is > 100 µM (inactive).
For the compound `O=C1c2ccccc2C(=O)C1c1ccc2ccccc2n1`, the IC50 is > 100 µM (inactive).
Then `Nc1nonc1C(=O)NCCN=Cc1cc(Cc2ccccc2)cc(Br)c1O`, with > 100 µM (inactive); and `CCOC(=O)/C(=N\Nc1cccc(C(F)(F)F)c1)N(CCOC)CCOC`, with > 100 µM (inactive).
Then `CCn1c(=O)c(C(=O)Nn2c(C)nc3ccccc3c2=O)c(O)c2ccccc21`, with 15.5 µM; and `Cc1ccc(N2CCOCC2)c2c1C(=O)c1ccccc1C2=O`, with 9.55 µM.
Then `Cc1ccc(-c2[nH]nc(N)c2N=Nc2ccccc2C)cc1`, with > 100 µM (inactive).
For `c1ccc(-c2csc3nnc(SCc4ccc5c(c4)OCO5)n23)cc1`, the IC50 is > 100 µM (inactive).
As for `COC1=C(N)C(=O)c2nc(-c3nc(C(=O)O)c(C)c(-c4ccc(OC)c(OC)c4O)c3N)ccc2C1=O`, the figure is 0.212 µM; as for `CC1=NOC(=O)/C1=C/c1ccc(-c2ccc(Cl)cc2)o1`, > 100 µM (inactive).
Then `O=C1C=C(c2ccccc2)C(=O)N1Nc1ccccc1`, with 12 µM.
As for `O=c1c2c([N+](=O)[O-])cc([N+](=O)[O-])cc2sn1-c1ccc(Br)cc1`, the figure is > 100 µM (inactive); as for `O=C1C(=O)c2ccccc2-c2ccccc21`, 7.79 µM.
Consider `O=C(CC(=O)c1cc(Cl)ccc1O)c1ccccc1`, for which the IC50 was > 100 µM (inactive).
Then `COc1cc(/C=C2\C(=O)ON=C2c2ccccc2)cc(OC)c1OC`, with 18.5 µM; and `CCc1cc2c(=O)[nH]c(-c3ccccn3)nc2s1`, with 19.2 µM; and `CN1C(=O)C(O)(CC(=O)c2ccccc2O)c2cc(Br)ccc21` (stereo unspecified), with > 100 µM (inactive).
Then `c1ccc(-c2ccc(OCCCn3cncn3)cc2)cc1`, with > 100 µM (inactive); and `CCC(=O)NC(c1ccc(C)cc1)c1cc([N+](=O)[O-])c2cccnc2c1O` (stereo unspecified), with 25.3 µM; and `O=C1NC(c2ccccn2)Nc2sc3c(c21)CCC3` (stereo unspecified), with > 100 µM (inactive).
For `Cc1ccc(N=Nc2ccc(O)c3ncccc23)cc1`, the IC50 is 34.3 µM.
Then `CCc1ccc(C2NC(=S)NC3=C2C(=O)N(c2ccccc2OC)C(c2ccc(CC)cc2)N3)cc1` (stereo unspecified), with > 100 µM (inactive).
Then `COc1ccc(-c2n[nH]c(C)c2-c2ccc(Cl)cc2)c(O)c1`, with 33.4 µM; and `Cc1cccc(C(=O)NC(=S)NNC(=O)c2cccs2)c1`, with 30.6 µM; and `CCc1cc(-c2n[nH]c(C)c2Oc2ccc(C(C)C)cc2)c(O)cc1O`, with 31.4 µM.
As for `COc1cc(/C=C2/C(=O)ON=C2c2ccccc2)ccc1O`, the figure is 8.49 µM; as for `Cc1nc2ccc(C(=O)O)cc2[nH]1`, > 100 µM (inactive).
As for `CC(=O)Oc1ccc(N2C(=O)C3C(C2=O)C2(C)C=CC3(C)O2)cc1` (stereo unspecified), the IC50 is > 100 µM (inactive).

One may read the IC50 as the concentration at which inhibition is half-maximal.

The values above are taken from PubChem BioAssay AID849 (SRMLSC, 2007).
